Results published in PubChem BioAssay (NCI).
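In this assay, cells in 96-well plates receive the compound at five concentrations for 48 hours. Endpoints are linearly interpolated between the surrounding concentrations. GI50 = concentration required for 50% inhibition of growth. TGI is the concentration that stops growth completely.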

Experiments:
Test in all cases: growth of human tumour cells (NCI), 48 h
[1] = test system: NCI-H522 lung
[2] = test system: TK-10 renal
[3] = test system: HOP-62 NSCLC
[4] = test system: OVCAR-8 ovarian
[5] = test system: LOX IMVI melanoma
[6] = test system: OVCAR-4 ovarian
[7] = test system: M14 melanoma
[8] = test system: RXF 393 renal
[9] = test system: ACHN renal
[10] = test system: HCT-15 colon
[11] = test system: SF-268 CNS
[12] = test system: CCRF-CEM leukemia
[13] = test system: CAKI-1 renal
[14] = test system: SK-OV-3 ovarian
[15] = test system: UACC-62 melanoma
[16] = test system: NCI-H23 lung
[17] = test system: OVCAR-3 ovarian
[18] = test system: SF-539 CNS
[19] = test system: MOLT-4 leukemia
[20] = test system: RPMI-8226 leukemia
[21] = test system: SN12C renal
[22] = test system: BT-549 breast
[23] = test system: KM12 colon
[24] = test system: SF-295 CNS
[25] = test system: SK-MEL-5 melanoma
[26] = test system: U251 CNS
[27] = test system: SK-MEL-28 melanoma
[28] = test system: HT29 colon
[29] = test system: SW-620 colon

Structure (SMILES): CCN1CCN(Cc2ccc(NC(=O)c3nc4ccc5[nH]ncc5c4c4c3CCCC4)cc2C(F)(F)F)CC1
- GI50 [1]: 882 nM
- TGI [1]: 1850 nM
- GI50 [2]: 1830 nM
- TGI [2]: 6790 nM
- GI50 [3]: 815 nM
- TGI [3]: 1650 nM
- GI50 [4]: 1010 nM
- TGI [4]: 2050 nM
- GI50 [5]: 836 nM
- TGI [5]: 1550 nM
- GI50 [6]: 1070 nM
- TGI [6]: 2630 nM
- GI50 [7]: 885 nM
- TGI [7]: 1800 nM
- GI50 [8]: 738 nM
- TGI [8]: 1430 nM
- GI50 [9]: 861 nM
- TGI [9]: 1560 nM
- GI50 [10]: 950 nM
- TGI [10]: 1960 nM
- GI50 [11]: 2300 nM
- TGI [11]: 9200 nM
- GI50 [12]: 1150 nM
- TGI [12]: 3260 nM
- GI50 [13]: 976 nM
- TGI [13]: 2420 nM
- GI50 [14]: 7250 nM
- TGI [14]: 14200 nM
- GI50 [15]: 922 nM
- TGI [15]: 1880 nM
- GI50 [16]: 1760 nM
- TGI [16]: 7210 nM
- GI50 [17]: 997 nM
- TGI [17]: 1920 nM
- GI50 [18]: 870 nM
- TGI [18]: 1600 nM
- GI50 [19]: 1010 nM
- TGI [19]: 2280 nM
- GI50 [20]: 1070 nM
- TGI [20]: 2610 nM
- GI50 [21]: 865 nM
- TGI [21]: 1630 nM
- GI50 [22]: 6330 nM
- TGI [22]: 13000 nM
- GI50 [23]: 988 nM
- TGI [23]: 1940 nM
- GI50 [24]: 888 nM
- TGI [24]: 1800 nM
- GI50 [25]: 903 nM
- TGI [25]: 1630 nM
- GI50 [26]: 883 nM
- TGI [26]: 1630 nM
- GI50 [27]: 899 nM
- TGI [27]: 1650 nM
- GI50 [28]: 923 nM
- TGI [28]: 1910 nM
- GI50 [29]: 969 nM
- TGI [29]: 1890 nM
